The source of these data is BindingDB's records for doi:10.7270/Q20V8B80 (The Scripps Research Institute Molecular Screening Center, 2011).

In the assay the target is T1, Caspase-7 (Homo sapiens, UniProt P55210).
T1 sequence (P55210 whole entry): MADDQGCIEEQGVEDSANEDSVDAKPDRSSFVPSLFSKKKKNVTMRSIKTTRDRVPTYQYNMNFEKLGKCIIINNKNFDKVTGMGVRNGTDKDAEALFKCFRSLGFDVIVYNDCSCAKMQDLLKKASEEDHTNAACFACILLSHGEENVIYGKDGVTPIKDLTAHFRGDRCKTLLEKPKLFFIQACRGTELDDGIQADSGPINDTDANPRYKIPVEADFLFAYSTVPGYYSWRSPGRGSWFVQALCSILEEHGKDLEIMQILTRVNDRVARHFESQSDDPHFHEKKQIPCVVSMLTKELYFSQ
As to the kind of experiment: potency of procaspase-7 enzyme activation – biochemical, absorbance, human, dual procaspase-3/-7 activator project, dose response (AID 504330).

The structures appear in SMILES notation.

A word on the EC50: it is the concentration giving half of the maximal effect. Take `CCOC(=O)C(C#N)C=Nc1cc(OC)ccc1OC` (configuration not stated) [(E)-2-Cyano-3-(2,5-dimethoxy-phenylamino)-acrylic acid ethyl ester]: the EC50 was > 85.3 µM.
To `COc1ccccc1-n1c(O)c2n(-c3ccccc3)[nH]c(C(=O)c3ccccc3)c-2c1=O` belongs > 85.3 µM; to `CCOc1ccc(NC=C2C(=O)CC(c3ccco3)CC2=O)cc1` (configuration not stated) [SMR000268302], > 85.3 µM.
Next, `O=C(c1ccccc1)c1[nH]n(-c2ccccc2)c2c(O)n(-c3ccccc3)c(=O)c1-2` [3-benzoyl-1,5-diphenyl-3a,6a-dihydropyrrolo[3,4-c]pyrazole-4,6-dione]: > 85.3 µM.
To `C=CC=Nc1c(Cl)c(O)n(-c2cccc(Cl)c2Cl)c1O` [MLS000533809] belongs > 85.3 µM.
`COC(=O)c1[nH]n(-c2ccc(Cl)cc2)c2c(O)n(-c3ccccc3OC)c(=O)c1-2` [1-(4-Chloro-phenyl)-5-(2-methoxy-phenyl)-4,6-dioxo-1,3a,4,5,6,6a-hexahydro-pyrrolo[3,4-c]pyrazole-3-carboxylic acid methyl ester]: the EC50 is > 85.3 µM.
To `Cc1[nH]nc2c1C(c1c[nH]c3ccccc13)C(C#N)C(=N)O2` (configuration not stated) [MLS001030009] belongs 27.8 µM.
